Test results as given in US6737383B1, “Herbicidal oxadiazolidines” (priority 1999, dated 2004).

Key:
pigweed = assay: Test B pre/postemergence pigweed; assay type: in vivo, Amaranthus retroflexus; settings: for Plant response rating, Redroot pigweed: Postemergence
How it was run: (§1)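 Herbicidal effect was estimated by eye on a ten-point control scale after plants spent twelve to sixteen days in a greenhouse following soil or foliar treatment. Foliar sprays targeted plants at one to four leaves; all doses were formulated in a non-phytotoxic solvent with surfactant.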

surinam grass = assay: Test B pre/postemergence surinam grass; assay type: in vivo, Brachiaria decumbens
How it was run: as §1

giant foxtail = assay: Test B pre/postemergence giant foxtail; assay type: in vivo, Setaria faberii
How it was run: as §1

morningglory = assay: Test B pre/postemergence morningglory; assay type: in vivo, Ipomoea hederacea
How it was run: as §1

bedstraw = assay: Test B pre/postemergence bedstraw; assay type: in vivo, Galium aparine
How it was run: as §1

velvetleaf = assay: Test B pre/postemergence velvetleaf; assay type: in vivo, Abutilon theophrasti; settings: for Plant response rating, Velvetleaf: Postemergence
How it was run: as §1

sugar beet = assay: Test B pre/postemergence sugar beet; assay type: in vivo, Beta vulgaris; settings: for Plant response rating, Sugarbeets: Postemergence
How it was run: as §1

cocklebur = assay: Test B pre/postemergence cocklebur; assay type: in vivo, Xanthium strumarium
How it was run: as §1

rape = assay: Test B pre/postemergence rape; assay type: in vivo, Brassica napus
How it was run: as §1

corn = assay: Test B pre/postemergence corn; assay type: in vivo, Zea mays
How it was run: as §1

wild oat = assay: Test B pre/postemergence wild oat; assay type: in vivo, Avena fatua; settings: for Plant response rating, Wild oats: Postemergence
How it was run: as §1

purple nutsedge = assay: Test B pre/postemergence purple nutsedge; assay type: in vivo, Cyperus rotundus
How it was run: as §1

wheat = assay: Test B pre/postemergence wheat; assay type: in vivo, Triticum aestivum; settings: for Plant response rating, Wheat: Postemergence
How it was run: as §1

crabgrass = assay: Test B pre/postemergence crabgrass; assay type: in vivo, Digitaria sanguinalis
How it was run: as §1

blackgrass = assay: Test B pre/postemergence blackgrass; assay type: in vivo, Alopecurus myosuroides
How it was run: as §1

soybean = assay: Test B pre/postemergence soybean; assay type: in vivo, Glycine max; settings: for Plant response rating, Soybean: Postemergence
How it was run: as §1

[1] = Rate 500 g/ha, scale of 0 to 10 where 0 is no effect and 10 is complete control
[2] = Preemergence, Rate 62 g/ha, scale 0 to 10 (0 no effect, 10 complete control)
[3] = Preemergence, Rate 125 g/ha, scale of 0 to 10 where 0 is no effect and 10 is complete control
[4] = Preemergence, Rate 500 g/ha, scale of 0 to 10 where 0 is no effect and 10 is complete control
[5] = Rate 250 g/ha, scale of 0 to 10 where 0 is no effect and 10 is complete control
[6] = Postemergence, Rate 62 g/ha, scale of 0 to 10, 0 is no effect, 10 is complete control
[7] = Postemergence, Rate 125 g/ha, scale 0 to 10, 0 is no effect, 10 is complete control
[8] = Postemergence, Rate 500 g/ha, scale of 0 to 10 where 0 is no effect and 10 is complete control
[9] = Rate 250 g/ha, Postemergence, scale of 0 to 10 where 0 is no effect and 10 is complete control

CC(C)N(C(=O)n1oc(=O)n(COCc2ccccc2)c1=O)c1ccccc1 [Compound 579]
Plant response rating, Redroot pigweed (pigweed; [1]): 3 | Redroot pigweed plant response rating (pigweed; [2]): 0 | Redroot pigweed plant response rating (pigweed; [3]): 0 | Redroot pigweed plant response rating (0 to 10 scale) (pigweed; Preemergence, Rate 250 g/ha): 2 | Redroot pigweed plant response rating (pigweed; [4]): 3 | Plant response rating, Redroot pigweed (pigweed; [5]): 0 | B. signalgrass plant response rating (surinam grass; [6]): 0 | B. signalgrass plant response rating (surinam grass; [7]): 0 | Plant response rating, B. signalgrass (surinam grass; [8]): 2 | B. signalgrass plant response rating (surinam grass; [2]): 0 | B. signalgrass plant response rating (surinam grass; [3]): 0 | B. signalgrass plant response rating (0 to 10 scale, 0 is no effect, 10 is complete control) (surinam grass; Preemergence, Rate 250 g/ha): 2 | B. signalgrass plant response rating (surinam grass; [4]): 3 | Plant response rating, B. signalgrass (surinam grass; [9]): 2 | Giant foxtail plant response rating (giant foxtail; [6]): 0 | Giant foxtail plant response rating (giant foxtail; [7]): 2 | Plant response rating, Giant foxtail (giant foxtail; [8]): 7 | Giant foxtail plant response rating (giant foxtail; [2]): 8 | Giant foxtail plant response rating (giant foxtail; [3]): 9 | Giant foxtail plant response rating (0 to 10 scale) (giant foxtail; Preemergence, Rate 250 g/ha): 10 | Giant foxtail plant response rating (giant foxtail; [4]): 10 | Plant response rating, Giant foxtail (giant foxtail; [9]): 5 | Morningglory plant response rating (morningglory; [6]): 10 | Morningglory plant response rating (morningglory; [7]): 10 | Plant response rating, Morningglory (morningglory; [8]): 10 | Morningglory plant response rating (morningglory; [2]): 0 | Morningglory plant response rating (morningglory; [3]): 0 | Morningglory plant response rating (0 to 10 scale) (morningglory; Preemergence, Rate 250 g/ha): 0 | Morningglory plant response rating (morningglory; [4]): 0 | Plant response rating, Morningglory (morningglory; [9]): 10 | Bedstraw plant response rating (bedstraw; [6]): 0 | Bedstraw plant response rating (bedstraw; [7]): 0 | Bedstraw plant response rating (bedstraw; [2]): 0 | Bedstraw plant response rating (bedstraw; [3]): 0 | Bedstraw plant response rating (0 to 10 scale) (bedstraw; Preemergence, Rate 250 g/ha): 0 | Bedstraw plant response rating (bedstraw; [4]): 0 | Plant response rating, Bedstraw (bedstraw; [9]): 10 | Plant response rating, Velvetleaf (velvetleaf; [1]): 0 | Velvetleaf plant response rating (velvetleaf; [2]): 0 | Velvetleaf plant response rating (velvetleaf; [3]): 0 | Velvetleaf plant response rating (0 to 10 scale) (velvetleaf; Preemergence, Rate 250 g/ha): 0 | Velvetleaf plant response rating (velvetleaf; [4]): 0 | Plant response rating, Velvetleaf (velvetleaf; [5]): 0 | Plant response rating, Sugarbeets (sugar beet; [1]): 0 | Sugarbeets plant response rating (sugar beet; [2]): 0 | Sugarbeets plant response rating (sugar beet; [3]): 0 | Sugarbeets plant response rating (0 to 10 scale) (sugar beet; Preemergence, Rate 250 g/ha): 0 | Sugarbeets plant response rating (sugar beet; [4]): 0 | Plant response rating, Sugarbeets (sugar beet; [5]): 0 | Cocklebur plant response rating (cocklebur; [6]): 0 | Cocklebur plant response rating (cocklebur; [7]): 0 | Plant response rating, Cocklebur (cocklebur; [8]): 0 | Cocklebur plant response rating (cocklebur; [2]): 0 | Cocklebur plant response rating (cocklebur; [3]): 0 | Cocklebur plant response rating (0 to 10 scale) (cocklebur; Preemergence, Rate 250 g/ha): 0 | Cocklebur plant response rating (cocklebur; [4]): 0 | Plant response rating, Cocklebur (cocklebur; [9]): 0 | Rape plant response rating (rape; [6]): 0 | Rape plant response rating (rape; [7]): 0 | Plant response rating, Rape (rape; [8]): 3 | Rape plant response rating (rape; [2]): 0 | Rape plant response rating (rape; [3]): 0 | Rape plant response rating (0 to 10 scale) (rape; Preemergence, Rate 250 g/ha): 0 | Rape plant response rating (rape; [4]): 0 | Plant response rating, Rape (rape; [9]): 0 | Corn plant response rating (corn; [6]): 0 | Corn plant response rating (corn; [7]): 0 | Plant response rating, Corn (corn; [8]): 0 | Corn plant response rating (corn; [2]): 0 | Corn plant response rating (corn; [3]): 0 | Corn plant response rating (0 to 10 scale) (corn; Preemergence, Rate 250 g/ha): 0 | Corn plant response rating (corn; [4]): 3 | Plant response rating, Corn (corn; [9]): 0 | Plant response rating, Wild oats (wild oat; [1]): 0 | Wild oats plant response rating (wild oat; [2]): 0 | Wild oats plant response rating (wild oat; [3]): 0 | Wild oats plant response rating (0 to 10 scale) (wild oat; Preemergence, Rate 250 g/ha): 0 | Wild oats plant response rating (wild oat; [4]): 0 | Plant response rating, Wild oats (wild oat; [5]): 0 | Nutsedge plant response rating (purple nutsedge; [7]): 0 | Nutsedge plant response rating (purple nutsedge; [2]): 0 | Nutsedge plant response rating (purple nutsedge; [3]): 0 | Nutsedge plant response rating (0 to 10 scale) (purple nutsedge; Preemergence, Rate 250 g/ha): 0 | Nutsedge plant response rating (purple nutsedge; [4]): 3 | Plant response rating, Nutsedge (purple nutsedge; [9]): 0 | Plant response rating, Wheat (wheat; [1]): 0 | Wheat plant response rating (wheat; [2]): 0 | Wheat plant response rating (wheat; [3]): 0 | Wheat plant response rating (0 to 10 scale) (wheat; Preemergence, Rate 250 g/ha): 0 | Wheat plant response rating (wheat; [4]): 0 | Plant response rating, Wheat (wheat; [5]): 0 | Crabgrass plant response rating (crabgrass; [6]): 0 | Crabgrass plant response rating (crabgrass; [7]): 6 | Plant response rating, Crabgrass (crabgrass; [8]): 8 | Crabgrass plant response rating (crabgrass; [2]): 7 | Crabgrass plant response rating (crabgrass; [3]): 7 | Crabgrass plant response rating (0 to 10 scale) (crabgrass; Preemergence, Rate 250 g/ha): 10 | Crabgrass plant response rating (crabgrass; [4]): 10 | Plant response rating, Crabgrass (crabgrass; [9]): 6 | Blackgrass plant response rating (blackgrass; [6]): 0 | Blackgrass plant response rating (blackgrass; [7]): 0 | Plant response rating, Blackgrass (blackgrass; [8]): 5 | Blackgrass plant response rating (blackgrass; [2]): 0 | Blackgrass plant response rating (blackgrass; [3]): 0 | Blackgrass plant response rating (0 to 10 scale) (blackgrass; Preemergence, Rate 250 g/ha): 0 | Blackgrass plant response rating (blackgrass; [4]): 0 | Plant response rating, Blackgrass (blackgrass; [9]): 2 | Plant response rating, Soybean (soybean; [1]): 4 | Soybean plant response rating (soybean; [2]): 0 | Soybean plant response rating (soybean; [3]): 0 | Soybean plant response rating (0 to 10 scale) (soybean; Preemergence, Rate 250 g/ha): 0 | Soybean plant response rating (soybean; [4]): 0 | Plant response rating, Soybean (soybean; [5]): 3
